Reference: ChEMBL document CHEMBL1201862, “PubChem BioAssay data set” (2004)
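Values below derive from 48-hour exposures of cells grown in 96-well plates, with endpoints linearly interpolated between the two concentrations bracketing the appropriate inhibition level. The concentration for 50% growth inhibition is given as GI50.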 Active and inactive are the calls of the source. No stated cut-off is given here; in the data, active = GI50 up to about 1.1 µM and inactive = higher.

What was measured:
Experiment in all cases: NCI-60 cell line screen, 48 h
786-0 = test system: 786-0
A549 = test system: A549
BT-549 = test system: BT-549
COLO 205 = test system: COLO 205
EKVX = test system: EKVX
HL-60 = test system: HL-60
HOP-62 = test system: HOP-62
IGROV-1 = test system: IGROV-1
MDA-MB-435 = test system: MDA-MB-435
MDA-N = test system: MDA-N
NCI-H226 = test system: NCI-H226
NCI-H23 = test system: NCI-H23
NCI/ADR-RES = test system: NCI/ADR-RES
SK-MEL-2 = test system: SK-MEL-2
SR = test system: SR
SW-620 = test system: SW-620
U-251 = test system: U-251
UO-31 = test system: UO-31
M14 = test system: M14
SNB-19 = test system: SNB-19

Measured: GI50

CS(=O)(=O)Nc1ccc2c(c1)N(S(C)(=O)=O)CC2COS(C)(=O)=O (centres undefined)
inactive: 786-0 31 µM | A549 > 100 µM | BT-549 50.4 µM | COLO 205 > 100 µM | EKVX > 100 µM | HL-60 25.2 µM | HOP-62 31.1 µM | IGROV-1 > 100 µM | MDA-MB-435 > 100 µM | MDA-N > 100 µM | NCI-H226 > 100 µM | NCI-H23 45.1 µM | NCI/ADR-RES > 100 µM | SK-MEL-2 19.9 µM | SR 23.3 µM | SW-620 32.2 µM | U-251 25.8 µM | UO-31 > 100 µM

Cc1ccnc2c1ccc1nc3ccccc3n12
inactive: 786-0 52.6 µM | A549 > 100 µM | BT-549 63.5 µM | COLO 205 > 100 µM | EKVX 1.88 µM | HL-60 85.3 µM | HOP-62 89.7 µM | IGROV-1 25.5 µM | M14 > 100 µM | MDA-MB-435 > 100 µM | MDA-N > 100 µM | NCI-H226 18.4 µM | NCI-H23 > 100 µM | NCI/ADR-RES 37.8 µM | SK-MEL-2 > 100 µM | SR 44.7 µM | SW-620 > 100 µM | UO-31 30.6 µM

Cc1nc(O)c2c3c(sc2n1)CCCC3
inactive: 786-0 35.9 µM | A549 78.5 µM | BT-549 > 100 µM | COLO 205 > 100 µM | EKVX 19.9 µM | HL-60 > 100 µM | HOP-62 > 100 µM | IGROV-1 > 100 µM | M14 > 100 µM | MDA-MB-435 > 100 µM | MDA-N 87.7 µM | NCI-H226 > 100 µM | NCI-H23 > 100 µM | NCI/ADR-RES > 100 µM | SK-MEL-2 > 100 µM | SNB-19 > 100 µM | SR 27 µM | SW-620 > 100 µM | U-251 66.2 µM | UO-31 20.4 µM

Nc1ccc(C(=O)CC(N)C(=O)O)cc1O (centres undefined)
inactive: 786-0 > 100 µM | A549 > 100 µM | BT-549 > 100 µM | COLO 205 > 100 µM | EKVX > 100 µM | HL-60 > 100 µM | HOP-62 > 100 µM | IGROV-1 > 100 µM | M14 > 100 µM | MDA-MB-435 > 100 µM | MDA-N > 100 µM | NCI-H226 > 100 µM | NCI-H23 > 100 µM | NCI/ADR-RES > 100 µM | SK-MEL-2 > 100 µM | SNB-19 > 100 µM | SR > 100 µM | SW-620 > 100 µM | U-251 > 100 µM | UO-31 > 100 µM

CCc1nnc2sc(-c3ccc(-c4ccccc4[N+](=O)[O-])o3)nn12
inactive: 786-0 54.8 µM | A549 36.5 µM | BT-549 36.6 µM | COLO 205 34.9 µM | EKVX 21.6 µM | HL-60 24 µM | HOP-62 87.9 µM | IGROV-1 47.9 µM | M14 37.6 µM | MDA-MB-435 20.3 µM | MDA-N 19.9 µM | NCI-H226 14.4 µM | NCI-H23 32.9 µM | NCI/ADR-RES 27 µM | SK-MEL-2 28.1 µM | SNB-19 75.3 µM | SR 20.1 µM | SW-620 34 µM | U-251 40.6 µM | UO-31 41.9 µM

O=CNc1ccccc1OCCOc1ccccc1NC=O
inactive: 786-0 > 100 µM | A549 > 100 µM | BT-549 > 100 µM | COLO 205 > 100 µM | EKVX > 100 µM | HL-60 > 100 µM | HOP-62 > 100 µM | IGROV-1 > 100 µM | M14 > 100 µM | MDA-MB-435 > 100 µM | MDA-N > 100 µM | NCI-H226 > 100 µM | NCI-H23 > 100 µM | NCI/ADR-RES > 100 µM | SK-MEL-2 > 100 µM | SNB-19 > 100 µM | SR > 100 µM | SW-620 > 100 µM | U-251 > 100 µM | UO-31 > 100 µM

OC(CC(c1ccccc1)c1ccc(Cl)cc1)c1ccc(Cl)cc1 (centres undefined)
inactive: 786-0 34.1 µM | A549 37.8 µM | BT-549 56.6 µM | COLO 205 18.5 µM | EKVX 30.5 µM | HL-60 24.9 µM | HOP-62 36.4 µM | IGROV-1 35.8 µM | M14 37.3 µM | MDA-MB-435 27.4 µM | MDA-N 29 µM | NCI-H226 31.6 µM | NCI-H23 29.7 µM | NCI/ADR-RES 33.5 µM | SK-MEL-2 24 µM | SNB-19 45.2 µM | SR 27.3 µM | SW-620 40.7 µM | U-251 39.7 µM | UO-31 33.3 µM

C=C1CC[C@]2(C)[C@H](CC[C@@]34C[C@@H](CC[C@H]32)[C@@H](C(=O)O)C4)C1(C)C
inactive: 786-0 7.83 µM | A549 5.22 µM | BT-549 > 12.5 µM | COLO 205 4.54 µM | EKVX > 12.5 µM | HL-60 4.7 µM | HOP-62 5.36 µM | IGROV-1 > 12.5 µM | M14 > 12.5 µM | MDA-MB-435 > 12.5 µM | MDA-N > 12.5 µM | NCI-H226 > 12.5 µM | NCI-H23 > 12.5 µM | NCI/ADR-RES > 12.5 µM | SK-MEL-2 > 12.5 µM | SNB-19 > 12.5 µM | SR 6.37 µM | SW-620 > 12.5 µM | U-251 > 12.5 µM | UO-31 7.28 µM

CC12O[C@]3([C@H](C(=O)N4CCOC43C)[C@H]1Cl)[C@H]1O[C@H]12 (some centres undefined)
inactive: 786-0 > 100 µM | A549 > 100 µM | BT-549 > 100 µM | COLO 205 24.6 µM | EKVX > 100 µM | HL-60 > 100 µM | HOP-62 > 100 µM | IGROV-1 > 100 µM | M14 > 100 µM | MDA-MB-435 > 100 µM | MDA-N > 100 µM | NCI-H226 > 100 µM | NCI/ADR-RES > 100 µM | SK-MEL-2 > 100 µM | SNB-19 > 100 µM | SR 51.4 µM | SW-620 > 100 µM | U-251 > 100 µM | UO-31 > 100 µM

CC(C)(C)C1CCC2c3c([nH]c4ccccc34)C3C(=O)N(c4ccc([N+](=O)[O-])cc4)C(=O)C3C2C1 (centres undefined)
inactive: 786-0 5.11 µM | A549 10.8 µM | BT-549 16.2 µM | COLO 205 8.71 µM | EKVX 25.3 µM | HL-60 6.11 µM | HOP-62 16.4 µM | IGROV-1 11.5 µM | M14 23.9 µM | MDA-MB-435 28.1 µM | MDA-N 28.5 µM | NCI-H226 13.9 µM | NCI-H23 10.3 µM | NCI/ADR-RES 14.9 µM | SK-MEL-2 11.8 µM | SNB-19 22 µM | SR 3.27 µM | SW-620 21 µM | U-251 15.6 µM
